Assays:
[1] = system: Blumeria graminis f. sp. tritici (Erysiphe graminis f. sp. tritici); test: Blumeria graminis f. sp. tritici / wheat / leaf disc preventative (powdery mildew on wheat); assay type: in vivo; conditions: foliar, wheat leaf segments cv. Kanzler, inoculated 1 day after application, assessed 6-8 days after application, read-out: control of Blumeria graminis (percent disease control compared to untreated)
Experimental: Blumeria Graminis f. Sp. Tritici (Erysiphe Graminis f. Sp. Tritici)/Wheat/Leaf Disc Preventative (Powdery Mildew on Wheat):
Wheat leaf segments cv. Kanzler were placed on agar in a 24-well plate and sprayed with the formulated test compound diluted in water at an application rate of 200 ppm. The leaf disks were inoculated by shaking powdery mildew infected plants above the test plates 1 day after application. The inoculated leaf disks were incubated at 20° C. and 60% relative humidity under a light regime of 24 h darkness followed by 12 h/12 h (dark/light) in a climate chamber and the activity of a compound was assessed as percent disease control compared to untreated when an appropriate level of disease damage appears on untreated check leaf segments (6-8 days after application). The following compounds gave at least 80% control of Blumeria graminis: […]

[2] = system: Puccinia recondita f. sp. tritici; test: Puccinia recondita f. sp. tritici / wheat / leaf disc preventative (brown rust); assay type: in vivo; conditions: foliar, wheat leaf segments cv Kanzler, inoculated 1 day after application, assessed 7-9 days after application, read-out: control of Puccinia recondita f. sp. tritici, preventative (percent disease control compared to untreated)
Experimental: Puccinia Recondita f. Sp. Tritici/Wheat/Leaf Disc Preventative (Brown Rust): Wheat leaf segments cultivated variety (cv) Kanzler were placed on agar in 24-well plates and sprayed with formulated test compound diluted in water at an application rate of 200 ppm. The leaf disks were inoculated with a spore suspension of the fungus 1 day after application. The inoculated leaf segments were incubated at 19° C. and 75% relative humidity under a light regime of 12/12 h (light/dark) in a climate cabinet and the activity of a compound was assessed as percent disease control compared to untreated when an appropriate level of disease damage appears in untreated check leaf segments (7-9 days after application).

[3] = system: Puccinia recondita f. sp. tritici; test: Puccinia recondita f. sp. tritici / wheat / leaf disc curative (brown rust); assay type: in vivo; conditions: foliar, 200 ppm applied 1 day after inoculation, wheat leaf segments cv Kanzler, assessed 6-8 days after application, read-out: control of Puccinia recondita f. sp. tritici, curative (percent disease control compared to untreated)
Experimental: Puccinia Recondita f. Sp. Tritici/Wheat/Leaf Disc Curative (Brown Rust): Wheat leaf segments cv Kanzler were placed on agar in 24-well plates. The leaf segments were inoculated with a spore suspension of the fungus. The plates were stored in darkness at 19° C. and 75% relative humidity. The formulated test compound diluted in water was applied at an application rate of 200 ppm 1 day after inoculation.

[4] = system: Phaeosphaeria nodorum (Septoria nodorum); test: Phaeosphaeria nodorum (Septoria nodorum) / wheat / leaf disc preventative (glume blotch); assay type: in vivo; conditions: Parastagonospora nodorum, foliar, wheat leaf segments cv Kanzler, inoculated 2 days after application, assessed 5-7 days after application, read-out: control of Phaeosphaeria nodorum (percent disease control compared to untreated)
Experimental: Phaeosphaeria Nodorum (Septoria nodorum)/Wheat/Leaf Disc Preventative (Glume Blotch): Wheat leaf segments cv Kanzler were placed on agar in a 24-well plate and sprayed with formulated test compound diluted in water at an application rate of 200 ppm. The leaf disks are inoculated with a spore suspension of the fungus 2 days after application. The inoculated test leaf disks are incubated at 20° C. and 75% relative humidity under a light regime of 12/12 h (light/dark) in a climate cabinet and the activity of a compound is assessed as percent disease control compared to untreated when an appropriate level of disease damage appears in untreated check leaf disks (5-7 days after application).

Pyrenophora teres = Pyrenophora teres / barley / leaf disc preventative (net blotch); assay type: in vivo; conditions: foliar, barley leaf segments cv Hasso, inoculated two days after application, assessed 5-7 days after application, read-out: control of Pyrenophora teres (disease control compared to untreated)
Experimental: Pyrenophora Teres/Barley/Leaf Disc Preventative (Net Blotch): Barley leaf segments cv Hasso are placed on agar in a 24-well plate and sprayed with formulated test compound diluted in water at an application rate of 200 ppm. The leaf segments are inoculated with a spore suspension of the fungus two days after application of the test solution. The inoculated leaf segments are incubated at 20° C. and 65% relative humidity under a light regime of 12/12 h (light/dark) in a climate cabinet and the activity of a compound is assessed as disease control compared to untreated when an appropriate level of disease damage appears in untreated check leaf segments (5-7 days after application).

[5] = system: Botryotinia fuckeliana (Botrytis cinerea); test: Botryotinia fuckeliana (Botrytis cinerea) / liquid culture (gray mould); assay type: cell-based; conditions: Vogels broth, 24° C., 3-4 days after application, read-out: control of Botryotinia fuckeliana (inhibition of growth, photometrically)
Experimental: Botryotinia Fuckeliana (Botrytis cinerea)/Liquid Culture (Gray Mould): Conidia of the fungus from cryogenic storage were directly mixed into nutrient broth (Vogels broth). After placing a DMSO solution of test compound into a 96-well microtiter plate at an application rate 200 ppm, the nutrient broth containing the fungal spores was added. The test plates were incubated at 24° C. and the inhibition of growth was determined photometrically 3-4 days after application.

Pythium ultimum = Pythium ultimum / liquid culture (seedling damping off); assay type: cell-based; conditions: Globisporangium ultimum, PDB potato dextrose broth, 24° C., 2-3 days after application, read-out: control of Pythium ultimum (inhibition of growth, photometrically)
Experimental: Pythium Ultimum/Liquid Culture (Seedling Damping Off): Mycelia fragments and oospores of a newly grown liquid culture of the fungus were directly mixed into nutrient broth (PDB potato dextrose broth). After placing a DMSO solution of test compound into a 96 well microtiter plate at an application rate 200 ppm, the nutrient broth containing the fungal mycelia/spore mixture was added. The test plates were incubated at 24° C. and the inhibition of growth was determined photometrically 2-3 days after application.

[6] = system: Thanatephorus cucumeris (Rhizoctonia solani); test: Thanatephorus cucumeris (Rhizoctonia solani) / liquid culture (foot rot, damping-off); assay type: cell-based; conditions: PDB potato dextrose broth, 24° C., 3-4 days after application, read-out: control of Thanatephorus cucumeris (inhibition of growth, photometrically)
Experimental: Thanatephorus Cucumeris (Rhizoctonia solani)/Liquid Culture (Foot Rot, Damping-Off): Mycelia fragments of a newly grown liquid culture of the fungus are directly mixed into nutrient broth (PDB potato dextrose broth). After placing a DMSO solution of the test compounds into a 96-well microtiter plate at an application rate 200 ppm, the nutrient broth containing the fungal material was added. The test plates were incubated at 24° C. and the inhibition of growth was determined photometrically 3-4 days after application.

[7] = system: Magnaporthe grisea (Pyricularia oryzae); test: whole plant or invertebrate; assay type: in vivo; conditions: foliar, read-out: control of Magnaporthe grisea (percent disease control compared to untreated)
Phytophthora infestans = test: whole plant or invertebrate; assay type: in vivo; conditions: in Solanum lycopersicum, foliar, read-out: control of Phytophthora infestans (percent disease control compared to untreated)

Cc1ccc2c(n1)/C(=N/OCCCO/N=C1\CCCc3ccc(C(F)(F)F)nc31)CCC2 [P.47]
≥ 80%: pest or weed control at 200 ppm [1] | pest or weed control at 200 ppm [2] | pest or weed control at 200 ppm [3] | pest or weed control at 200 ppm [4] | pest or weed control at 200 ppm (Pyrenophora teres) | inhibition at 200 ppm [5]

Cc1ccc2c(n1)/C(=N/OCC(F)CO/N=C1\CCCc3ccc(C)nc31)CCC2 (centres unmarked) [P.14]
≥ 80%: pest or weed control at 200 ppm [1] | pest or weed control at 200 ppm [2] | pest or weed control at 200 ppm [3] | pest or weed control at 200 ppm [4] | inhibition at 200 ppm (Pythium ultimum) | inhibition at 200 ppm [5]

Cc1ccc2c(n1)/C(=N/OCC(Cl)CO/N=C1\CCCc3ccc(C)nc31)CCC2 (centres unmarked) [P.24]
≥ 80%: pest or weed control at 200 ppm [1] | pest or weed control at 200 ppm [2] | pest or weed control at 200 ppm [3] | pest or weed control at 200 ppm [4] | pest or weed control at 200 ppm (Pyrenophora teres) | inhibition at 200 ppm (Pythium ultimum) | inhibition at 200 ppm [5]

FCc1ccnc2c1CCC/C2=N\OCCCO/N=C1\CCCc2c(CF)ccnc21 [P.36]
≥ 80%: inhibition at 200 ppm [5]

Cc1ccc2c(n1)/C(=N/OCC(C)(C)CO/N=C1\CCCc3c(N4CCCC4)cc(C)nc31)CCC2 [P.41]
≥ 80%: pest or weed control at 200 ppm [1] | pest or weed control at 200 ppm [4] | pest or weed control at 200 ppm (Pyrenophora teres) | inhibition at 200 ppm [5] | inhibition at 200 ppm [6]

Cc1c2c(nc3ccccc13)/C(=N/OCC(C)(C)CO/N=C1\CCCc3c1nc1ccccc1c3C)CCC2 [P.28]
≥ 80%: pest or weed control at 200 ppm [1] | pest or weed control at 200 ppm [4] | pest or weed control at 200 ppm (Pyrenophora teres) | inhibition at 200 ppm [5]

Cc1c2c(nc3ccccc13)/C(=N/OCC1(CO/N=C3\CCCc4c3nc3ccccc3c4C)CC1)CCC2 [P.27]
≥ 80%: pest or weed control at 200 ppm [1] | pest or weed control at 200 ppm [4] | pest or weed control at 200 ppm (Pyrenophora teres) | inhibition at 200 ppm [5]

Cc1c2c(nc3ccccc13)/C(=N/OCCCO/N=C1\CCCc3c1nc1ccccc1c3C)CCC2 [P.25]
≥ 80%: pest or weed control at 200 ppm [1] | pest or weed control at 200 ppm [2] | pest or weed control at 200 ppm [4] | pest or weed control at 200 ppm (Pyrenophora teres) | inhibition at 200 ppm [5]

Cc1cc(CF)nc2c1CCC/C2=N\OCC(C)(C)CO/N=C1\CCCc2c(C)cc(CF)nc21 [P.34]
≥ 80%: pest or weed control at 200 ppm [3] | pest or weed control at 200 ppm [7] | pest or weed control at 200 ppm [4] | pest or weed control at 200 ppm (Pyrenophora teres) | inhibition at 200 ppm [5]

Cc1ccc2c(n1)/C(=N/OCC(C)(C)CO/N=C1\CC(C)Cc3ccc(-c4ccc(Cl)cc4)nc31)CCC2 (centres unmarked) [P.22]
≥ 80%: pest or weed control at 200 ppm [4] | inhibition at 200 ppm [5]

Cc1cc(CF)c2c(n1)/C(=N/OCCCO/N=C1\CCCc3c(CF)cc(C)nc31)CCC2 [P.48]
≥ 80%: pest or weed control at 200 ppm [1] | pest or weed control at 200 ppm [2] | pest or weed control at 200 ppm [3] | pest or weed control at 200 ppm [7] | pest or weed control at 200 ppm [4] | pest or weed control at 200 ppm (Pyrenophora teres) | inhibition at 200 ppm (Pythium ultimum) | inhibition at 200 ppm [5]

CC(C)(CO/N=C1\CCCc2cc3c(nc21)CCCC3)CO/N=C1\CCCc2cc3c(nc21)CCCC3 [P.50]
≥ 80%: pest or weed control at 200 ppm [1] | pest or weed control at 200 ppm [4] | pest or weed control at 200 ppm (Pyrenophora teres) | inhibition at 200 ppm [5] | inhibition at 200 ppm [6]

Cc1ccc2c(n1)/C(=N/OCC(O)CO/N=C1\CCCc3ccc(C)nc31)CCC2 (centres unmarked) [P.11]
≥ 80%: pest or weed control at 200 ppm [2] | pest or weed control at 200 ppm [3] | pest or weed control at 200 ppm [4] | pest or weed control at 200 ppm (Pyrenophora teres)

Cc1ccc2c(n1)/C(=N/OCC(CO/N=C1\CCCc3ccc(C)nc31)c1ccccc1)CCC2 (centres unmarked) [P.04]
≥ 80%: pest or weed control at 200 ppm (Phytophthora infestans) | pest or weed control at 200 ppm [1] | pest or weed control at 200 ppm [2] | pest or weed control at 200 ppm [3] | pest or weed control at 200 ppm [4] | pest or weed control at 200 ppm (Pyrenophora teres) | inhibition at 200 ppm [5]

Cc1ccc2c(n1)/C(=N/OCC(C)(C)CO/N=C1\CCc3ccc(C)nc31)CCC2 [P.08]
≥ 80%: pest or weed control at 200 ppm [1] | inhibition at 200 ppm [5]

Cc1ccc2c(n1)/C(=N/OCC1(CO/N=C3\CCCc4ccc(C)nc43)CC1)CCC2 [P.03]
≥ 80%: pest or weed control at 200 ppm [1] | pest or weed control at 200 ppm [2] | pest or weed control at 200 ppm [3] | pest or weed control at 200 ppm [4] | pest or weed control at 200 ppm (Pyrenophora teres) | inhibition at 200 ppm (Pythium ultimum) | inhibition at 200 ppm [5]

Cc1cc(C(F)F)c2c(n1)/C(=N/OCC1(CO/N=C3\CCCc4c(C(F)F)cc(C)nc43)CC1)CCC2 [P.45]
≥ 80%: pest or weed control at 200 ppm [1] | pest or weed control at 200 ppm [2] | pest or weed control at 200 ppm [3] | pest or weed control at 200 ppm [7] | pest or weed control at 200 ppm [4] | pest or weed control at 200 ppm (Pyrenophora teres) | inhibition at 200 ppm [5]

COCc1cc(C)c2c(n1)/C(=N/OCC(C)(C)CO/N=C1\CCCc3ccc(C)nc31)CCC2 [P.42]
≥ 80%: pest or weed control at 200 ppm [1] | pest or weed control at 200 ppm [2] | pest or weed control at 200 ppm [3] | pest or weed control at 200 ppm [7] | pest or weed control at 200 ppm [4] | pest or weed control at 200 ppm (Pyrenophora teres) | inhibition at 200 ppm (Pythium ultimum) | inhibition at 200 ppm [5]

Cc1ccc2c(n1)/C(=N/OCC(C)(C)CO/N=C1\CCc3ccc(Cl)nc31)CCC2 [P.01]
≥ 80%: inhibition at 200 ppm [5]

Cc1cc(Cl)c2c(n1)/C(=N/OCC1(CO/N=C3\CCCc4c(Cl)cc(C)nc43)CC1)CCC2 [P.12]
≥ 80%: inhibition at 200 ppm [5] | inhibition at 200 ppm [6]

CSc1cc(C)nc2c1CCC/C2=N\OCCCO/N=C1\CCCc2c(SC)cc(C)nc21 [P.43]
≥ 80%: inhibition at 200 ppm [5]

COc1ccc2c(n1)/C(=N/OCC1(CO/N=C3\CCCc4ccc(OC)nc43)CC1)CCC2 [P.13]
≥ 80%: pest or weed control at 200 ppm [1] | pest or weed control at 200 ppm [2] | pest or weed control at 200 ppm [3] | pest or weed control at 200 ppm [4] | pest or weed control at 200 ppm (Pyrenophora teres) | inhibition at 200 ppm [5] | inhibition at 200 ppm [6]

— US20140162980A1, “NOVEL MICROBIOCIDAL DIOXIME ETHER DERIVATIVES” (SYNGENTA CROP PROTECTION LLC, priority 2010, published 2014)
